Measurements taken from ChEMBL document CHEMBL1144533, “Synthesis and evaluation of 2-{[2-(4-hydroxyphenyl)-ethyl]amino}pyrimidine-5-carboxamide derivatives as novel STAT6 inhibitors” (Bioorg Med Chem, 2007).
The source made the active and inactive calls. The rule behind the calls is not given here.

These compounds were tested on T-cell (assay: Effect on differentiation of C57BL/6 mouse T cells assessed as inhibition of IL12-induced TFN-gamma production). Conditions: not given.
Assay type: functional, cell-based

| Compound | Activity |
| --- | --- |
| Cc1cccc(Nc2nc(NCCc3ccc(O)cc3)ncc2C(N)=O)c1 | inactive |
| NC(=O)c1cnc(NCCc2ccc(O)c(Cl)c2)nc1NCc1ccccc1 | inactive |

These compounds were tested on T-cell (assay: Effect on differentiation of C57BL/6 mouse T cells assessed as inhibition of IL4 production). Conditions: C57BL/6, T-cell.
Assay type: functional, cell-based

| Compound | IC50 [nM] |
| --- | --- |
| Cc1cccc(Nc2nc(NCCc3ccc(O)cc3)ncc2C(N)=O)c1 | 14 |
| NC(=O)c1cnc(NCCc2ccc(O)c(Cl)c2)nc1NCc1ccccc1 | 2.3 |

These compounds were tested against T1, Signal transducer and activator of transcription 6 (Homo sapiens) (UniProt P42226) (assay: Inhibition of STAT6 in human IL4-stimulated FW4 cells at 10 uM). Conditions: not given.
T1 sequence (whole entry): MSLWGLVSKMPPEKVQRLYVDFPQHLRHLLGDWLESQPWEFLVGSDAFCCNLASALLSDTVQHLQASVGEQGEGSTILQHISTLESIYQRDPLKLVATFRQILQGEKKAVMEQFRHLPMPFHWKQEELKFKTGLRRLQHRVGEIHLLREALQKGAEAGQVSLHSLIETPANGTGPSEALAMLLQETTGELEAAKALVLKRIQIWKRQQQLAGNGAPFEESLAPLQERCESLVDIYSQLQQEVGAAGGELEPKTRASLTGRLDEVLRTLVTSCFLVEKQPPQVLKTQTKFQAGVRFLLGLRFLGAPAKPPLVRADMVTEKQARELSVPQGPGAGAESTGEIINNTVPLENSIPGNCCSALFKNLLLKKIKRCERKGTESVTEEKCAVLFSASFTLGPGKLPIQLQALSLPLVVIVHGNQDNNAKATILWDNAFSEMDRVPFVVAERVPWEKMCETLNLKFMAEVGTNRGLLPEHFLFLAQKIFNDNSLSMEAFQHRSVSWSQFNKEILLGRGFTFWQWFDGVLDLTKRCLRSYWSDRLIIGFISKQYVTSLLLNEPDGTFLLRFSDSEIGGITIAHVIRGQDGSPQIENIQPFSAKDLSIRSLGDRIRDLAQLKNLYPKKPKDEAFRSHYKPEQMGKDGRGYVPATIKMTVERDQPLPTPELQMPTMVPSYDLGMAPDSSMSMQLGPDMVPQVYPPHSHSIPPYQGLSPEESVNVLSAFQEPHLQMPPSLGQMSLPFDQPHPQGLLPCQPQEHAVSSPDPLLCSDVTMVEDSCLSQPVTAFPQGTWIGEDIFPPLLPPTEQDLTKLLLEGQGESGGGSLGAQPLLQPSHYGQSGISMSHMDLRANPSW

| Compound | inhibition [%] |
| --- | --- |
| Cc1cccc(Nc2nc(NCCCc3ccc(O)cc3)ncc2C(N)=O)c1 | 23 |
| Cc1cccc(Nc2nc(NCc3ccc(O)cc3)ncc2C(N)=O)c1 | 19 |
| Cc1cccc(Nc2nc(NCCc3ccccc3O)ncc2C(N)=O)c1 | 15 |
| Cc1cccc(Nc2nc(NCCc3ccccc3)ncc2C(N)=O)c1 | 16 |
| COc1ccc(CCNc2ncc(C(N)=O)c(Nc3cccc(C)c3)n2)cc1 | 49 |
| Cc1cccc(Nc2nc(CCCc3ccc(O)cc3)ncc2C(N)=O)c1 | 32 |

The compounds below were run against T2, Signal transducer and activator of transcription 6 (Homo sapiens, UniProt P42226) (assay: Inhibition of STAT6 in human IL4-stimulated FW4 cells). Conditions: not given.
T2 sequence (P42226 whole entry): T1 sequence (whole entry)

| Compound | IC50 [nM] |
| --- | --- |
| CNC(=O)c1cnc(NCCc2ccc(O)c(Cl)c2)nc1NCc1ccccc1 | 30 |
| Cc1cccc(Nc2nc(NCCc3ccc(O)cc3)ncc2C(=O)NC(C)C)c1 | 1100 |
| Cc1cccc(Nc2nc(NCCc3ccc(O)c(Cl)c3)ncc2C(N)=O)c1 | 45 |
| Cc1cccc(Nc2nc(NCCc3ccc(O)cc3)ncc2C(=O)N(C)C)c1 | 8200 |
| CCNC(=O)c1cnc(NCCc2ccc(O)cc2)nc1Nc1cccc(C)c1 | 380 |
| Cc1cccc(Nc2nc(NCCc3ccc(O)c(C)c3)ncc2C(N)=O)c1 | 130 |
| COc1cc(CCNc2ncc(C(N)=O)c(Nc3cccc(C)c3)n2)ccc1O | 660 |
| NC(=O)c1cnc(NCCc2ccc(O)cc2)nc1Nc1ccccc1 | 410 |
| Cc1cccc(Nc2nc(NCCc3ccc(O)c(F)c3)ncc2C(N)=O)c1 | 64 |
| Cc1cccc(Nc2nc(NCCc3ccc(O)c(Br)c3)ncc2C(N)=O)c1 | 83 |
| NC(=O)c1cnc(NCCc2ccc(O)cc2)nc1NC1CCCCC1 | 100 |
| Cc1cccc(Nc2nc(NCCc3ccc(O)cc3)ncc2C(N)=O)c1 | 190 |
| Cc1cccc(Nc2nc(NCCc3cccc(O)c3)ncc2C(N)=O)c1 | 3000 |
| NC(=O)c1cnc(NCCc2ccc(O)cc2)nc1NCc1ccccc1 | 88 |
| CNC(=O)c1cnc(NCCc2ccc(O)cc2)nc1Nc1cccc(C)c1 | 170 |
| NC(=O)c1cnc(NCCc2ccc(O)c(Cl)c2)nc1NCc1ccccc1 | 21 |
